According to PubChem BioAssay (NCI):
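Protocol summary: plate cells (96-well), add compound at 5 concentrations, incubate 48 h, interpolate endpoints linearly. The concentration for 50% growth inhibition is given as GI50. TGI: total growth inhibition.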

Columns and labels:
Assay in all cases: DTP human tumour cell line panel, 48 h
HCT-116 colon = tested on: HCT-116 colon
OVCAR-3 ovarian = tested on: OVCAR-3 ovarian
SK-MEL-28 melanoma = tested on: SK-MEL-28 melanoma
U251 CNS = tested on: U251 CNS
SNB-19 CNS = tested on: SNB-19 CNS
UO-31 renal = tested on: UO-31 renal
HL-60(TB) leukemia = tested on: HL-60(TB) leukemia
SF-268 CNS = tested on: SF-268 CNS
LOX IMVI melanoma = tested on: LOX IMVI melanoma
UACC-62 melanoma = tested on: UACC-62 melanoma
DU-145 prostate = tested on: DU-145 prostate
IGROV1 ovarian = tested on: IGROV1 ovarian
EKVX NSCLC = tested on: EKVX NSCLC
MALME-3M melanoma = tested on: MALME-3M melanoma
OVCAR-5 ovarian = tested on: OVCAR-5 ovarian
UACC-257 melanoma = tested on: UACC-257 melanoma
HT29 colon = tested on: HT29 colon
SK-OV-3 ovarian = tested on: SK-OV-3 ovarian
MDA-MB-231 breast = tested on: MDA-MB-231 breast
SF-539 CNS = tested on: SF-539 CNS
SN12C renal = tested on: SN12C renal
PC-3 prostate = tested on: PC-3 prostate
HOP-62 NSCLC = tested on: HOP-62 NSCLC
HOP-92 NSCLC = tested on: HOP-92 NSCLC
SNB-75 CNS = tested on: SNB-75 CNS
MCF7 breast = tested on: MCF7 breast
M14 melanoma = tested on: M14 melanoma
HCT-15 colon = tested on: HCT-15 colon
MDA-MB-435 = tested on: MDA-MB-435
MOLT-4 leukemia = tested on: MOLT-4 leukemia
SK-MEL-5 melanoma = tested on: SK-MEL-5 melanoma
CCRF-CEM leukemia = tested on: CCRF-CEM leukemia
A549 NSCLC = tested on: A549 NSCLC
OVCAR-4 ovarian = tested on: OVCAR-4 ovarian
K-562 leukemia = tested on: K-562 leukemia
BT-549 breast = tested on: BT-549 breast
NCI-H522 lung = tested on: NCI-H522 lung
NCI-H460 lung = tested on: NCI-H460 lung
CAKI-1 renal = tested on: CAKI-1 renal
RXF 393 renal = tested on: RXF 393 renal
NCI-H226 lung = tested on: NCI-H226 lung
SW-620 colon = tested on: SW-620 colon
ACHN renal = tested on: ACHN renal
RPMI-8226 leukemia = tested on: RPMI-8226 leukemia
786-0 renal = tested on: 786-0 renal
SK-MEL-2 melanoma = tested on: SK-MEL-2 melanoma
NCI/ADR-RES ovarian = tested on: NCI/ADR-RES ovarian
KM12 colon = tested on: KM12 colon
NCI-H23 lung = tested on: NCI-H23 lung
A498 renal = tested on: A498 renal
OVCAR-8 ovarian = tested on: OVCAR-8 ovarian
HCC-2998 colon = tested on: HCC-2998 colon
COLO 205 colon = tested on: COLO 205 colon
SR leukemia = tested on: SR leukemia
TK-10 renal = tested on: TK-10 renal
HS 578T breast = tested on: HS 578T breast

N#C/C=C(\c1ccc([N+](=O)[O-])cc1)n1nnc2cc(Cl)c(Cl)cc21 gave a GI50 (HCT-116 colon) of 1340 nM, a TGI (HCT-116 colon) of 2700 nM and a GI50 (OVCAR-3 ovarian) of 1880 nM. For the same molecule, the TGI (OVCAR-3 ovarian) was 3910 nM, the GI50 (SK-MEL-28 melanoma) was 2080 nM and the TGI (SK-MEL-28 melanoma) was 4230 nM. The GI50 (U251 CNS) was 1710 nM, the TGI (U251 CNS) was 3370 nM and the GI50 (SNB-19 CNS) was 2370 nM. It also gave a TGI (SNB-19 CNS) of 7140 nM, a GI50 (UO-31 renal) of 1110 nM and a TGI (UO-31 renal) of 2320 nM. It also gave a GI50 (HL-60(TB) leukemia) of 2710 nM, a TGI (HL-60(TB) leukemia) of 41100 nM and a GI50 (SF-268 CNS) of 3580 nM. The TGI (SF-268 CNS) was 33500 nM, the GI50 (LOX IMVI melanoma) was 1670 nM and the TGI (LOX IMVI melanoma) was 3190 nM. For the same molecule, the GI50 (UACC-62 melanoma) was 1770 nM, the TGI (UACC-62 melanoma) was 3950 nM and the GI50 (DU-145 prostate) was 1650 nM. The TGI (DU-145 prostate) was 3300 nM, the GI50 (IGROV1 ovarian) was 1820 nM and the TGI (IGROV1 ovarian) was 4080 nM. It also gave a GI50 (EKVX NSCLC) of 1910 nM, a TGI (EKVX NSCLC) of 4670 nM and a GI50 (MALME-3M melanoma) of 1700 nM. It also gave a TGI (MALME-3M melanoma) of 4180 nM, a GI50 (OVCAR-5 ovarian) of 1950 nM and a TGI (OVCAR-5 ovarian) of 3990 nM. For the same molecule, the GI50 (UACC-257 melanoma) was 2060 nM, the TGI (UACC-257 melanoma) was 4530 nM and the GI50 (HT29 colon) was 2050 nM. The TGI (HT29 colon) was 4230 nM, the GI50 (SK-OV-3 ovarian) was 5100 nM and the TGI (SK-OV-3 ovarian) was 18500 nM. For the same molecule, the GI50 (MDA-MB-231 breast) was 2340 nM, the TGI (MDA-MB-231 breast) was 8660 nM and the GI50 (SF-539 CNS) was 1770 nM. For the same molecule, the TGI (SF-539 CNS) was 3260 nM, the GI50 (SN12C renal) was 2080 nM and the TGI (SN12C renal) was 5400 nM. For the same molecule, the GI50 (PC-3 prostate) was 1560 nM, the TGI (PC-3 prostate) was 4000 nM and the GI50 (HOP-62 NSCLC) was 1990 nM. The TGI (HOP-62 NSCLC) was 5040 nM, the GI50 (HOP-92 NSCLC) was 1780 nM and the TGI (HOP-92 NSCLC) was 4280 nM. The GI50 (SNB-75 CNS) was 2130 nM, the TGI (SNB-75 CNS) was 8110 nM and the GI50 (MCF7 breast) was 738 nM. The TGI (MCF7 breast) was 3320 nM, the GI50 (M14 melanoma) was 1860 nM and the TGI (M14 melanoma) was 4500 nM. It also gave a GI50 (HCT-15 colon) of 1850 nM, a TGI (HCT-15 colon) of 5360 nM and a GI50 (MDA-MB-435) of 1750 nM. For the same molecule, the TGI (MDA-MB-435) was 3700 nM, the GI50 (MOLT-4 leukemia) was 2710 nM and the TGI (MOLT-4 leukemia) was over 100000 nM. For the same molecule, the GI50 (SK-MEL-5 melanoma) was 1830 nM, the TGI (SK-MEL-5 melanoma) was 3600 nM and the GI50 (CCRF-CEM leukemia) was 2310 nM. The TGI (CCRF-CEM leukemia) was 29400 nM, the GI50 (A549 NSCLC) was 3450 nM and the TGI (A549 NSCLC) was 13600 nM. It also gave a GI50 (OVCAR-4 ovarian) of 1540 nM, a TGI (OVCAR-4 ovarian) of 2890 nM and a GI50 (K-562 leukemia) of 2390 nM. It also gave a TGI (K-562 leukemia) of over 100000 nM, a GI50 (BT-549 breast) of 1770 nM and a TGI (BT-549 breast) of 3770 nM. For the same molecule, the GI50 (NCI-H522 lung) was 1720 nM, the TGI (NCI-H522 lung) was 3570 nM and the GI50 (NCI-H460 lung) was 2360 nM. For the same molecule, the TGI (NCI-H460 lung) was 6980 nM, the GI50 (CAKI-1 renal) was 1370 nM and the TGI (CAKI-1 renal) was 2910 nM. For the same molecule, the GI50 (RXF 393 renal) was 1820 nM, the TGI (RXF 393 renal) was 3770 nM and the GI50 (NCI-H226 lung) was 3000 nM. The TGI (NCI-H226 lung) was 17100 nM, the GI50 (SW-620 colon) was 1750 nM and the TGI (SW-620 colon) was 4150 nM. The GI50 (ACHN renal) was 1630 nM, the TGI (ACHN renal) was 3160 nM and the GI50 (RPMI-8226 leukemia) was 604 nM. It also gave a TGI (RPMI-8226 leukemia) of 2910 nM, a GI50 (786-0 renal) of 2090 nM and a TGI (786-0 renal) of 3580 nM. The GI50 (SK-MEL-2 melanoma) was 2560 nM, the TGI (SK-MEL-2 melanoma) was 6420 nM and the GI50 (NCI/ADR-RES ovarian) was 2540 nM. The TGI (NCI/ADR-RES ovarian) was 8790 nM, the GI50 (KM12 colon) was 2620 nM and the TGI (KM12 colon) was 11300 nM. For the same molecule, the GI50 (NCI-H23 lung) was 2280 nM, the TGI (NCI-H23 lung) was 6680 nM and the GI50 (A498 renal) was 1740 nM. For the same molecule, the TGI (A498 renal) was 3430 nM, the GI50 (OVCAR-8 ovarian) was 3020 nM and the TGI (OVCAR-8 ovarian) was 12000 nM. For the same molecule, the GI50 (HCC-2998 colon) was 1770 nM, the TGI (HCC-2998 colon) was 3330 nM and the GI50 (COLO 205 colon) was 1910 nM. For the same molecule, the TGI (COLO 205 colon) was 3910 nM, the GI50 (SR leukemia) was 1520 nM and the TGI (SR leukemia) was over 100000 nM. It also gave a GI50 (TK-10 renal) of 2600 nM, a TGI (TK-10 renal) of 4160 nM and a GI50 (HS 578T breast) of 2390 nM. The TGI (HS 578T breast) was 8940 nM.
For C[C@H]1[C@H](C)CC[C@]2(C(=O)OCCOCCOCC[P+](c3ccccc3)(c3ccccc3)c3ccccc3)CC[C@]3(C)C(=CC[C@@H]4[C@@]5(C)CC[C@H](OC(=O)C(Cl)Cl)C(C)(C)[C@@H]5CC[C@]43C)[C@H]12, the GI50 (HL-60(TB) leukemia) was 161 nM, the TGI (HL-60(TB) leukemia) was 804 nM and the GI50 (DU-145 prostate) was 301 nM. It also gave a TGI (DU-145 prostate) of 941 nM, a GI50 (CCRF-CEM leukemia) of 227 nM and a TGI (CCRF-CEM leukemia) of 1610 nM. The GI50 (SW-620 colon) was 234 nM, the TGI (SW-620 colon) was 955 nM and the GI50 (ACHN renal) was 540 nM. For the same molecule, the TGI (ACHN renal) was 1260 nM, the GI50 (HS 578T breast) was 202 nM and the TGI (HS 578T breast) was 3200 nM.
